Data on 16 compounds can be found in ChEMBL document CHEMBL1135133, “Scaffold hopping and optimization towards libraries of glycogen synthase kinase-3 inhibitors” (Bioorg Med Chem Lett, 2002).

Each structure is given as a SMILES string.

In the assay the target is Glycogen synthase kinase-3 beta (Homo sapiens, UniProt P49841). The experiment in a line: Inhibitory concentration against human Glycogen synthase kinase-3.
Chain of Glycogen synthase kinase-3 beta (P49841 whole entry): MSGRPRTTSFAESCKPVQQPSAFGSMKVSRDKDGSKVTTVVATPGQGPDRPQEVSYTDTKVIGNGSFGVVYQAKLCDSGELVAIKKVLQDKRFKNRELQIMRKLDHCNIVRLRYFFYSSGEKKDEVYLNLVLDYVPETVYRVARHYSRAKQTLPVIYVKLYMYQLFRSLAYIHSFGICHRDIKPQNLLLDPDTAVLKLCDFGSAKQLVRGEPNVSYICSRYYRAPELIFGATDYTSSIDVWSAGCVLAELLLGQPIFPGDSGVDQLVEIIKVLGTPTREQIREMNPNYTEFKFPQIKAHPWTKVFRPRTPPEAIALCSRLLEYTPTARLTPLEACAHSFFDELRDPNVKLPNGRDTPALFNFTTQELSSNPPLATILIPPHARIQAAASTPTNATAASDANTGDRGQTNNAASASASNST
Regarding `O=C(O)c1cccc(CSc2nnc(-c3ccncc3)o2)c1`, half-maximal inhibition (IC50) was put at 235 µM.
Next, `O=C(O)Cc1ccc(CSc2nnc(-c3ccncc3)s2)cc1`: 11 µM; `O=C(O)c1ccc(CSc2nnc(-c3ccncc3)o2)cc1`: 29 µM; `O=C(Cc1ccc(CSc2nnc(-c3ccncc3)o2)cc1)NCCc1ccccc1F`: 1.2 µM.
The compound `Ic1ccc(CSc2nnc(-c3ccncc3)o2)cc1` displayed an IC50 of 198 µM.
`COC(=O)c1cccc(CSc2nnc(-c3ccncc3)o2)c1` returned an IC50 of 1.1 µM.
In the case of `Fc1cccc(CSc2nnc(-c3ccncc3)o2)c1`, the concentration for half-maximal inhibition (IC50) is 1.4 µM.
Next, `Cc1nc(-c2cccc(CSc3nnc(-c4ccncc4)o3)c2)no1`: over 250 µM.
In turn, `O=C(O)Cc1ccc(CSc2nnc(-c3ccccn3)s2)cc1` came in with an IC50 of over 250 µM.
Next, `O=C(O)Cc1ccc(CSc2nnc(-c3cccnc3)s2)cc1`: over 250 µM; `Clc1ccccc1CSc1nnc(-c2ccncc2)o1`: 12 µM; `Clc1cccc(CSc2nnc(-c3ccncc3)o2)c1`: 0.82 µM.
`c1ccc(CCSc2nnc(-c3ccncc3)o2)cc1` showed an IC50 of 29 µM.
Next, `c1ccc(CSc2nnc(-c3ccncc3)o2)cc1`: 6.7 µM; `O=C(O)Cc1ccc(CSc2n[nH]c(-c3ccncc3)n2)cc1`: over 250 µM.
Next, `O=C(O)Cc1ccc(CSc2nnc(-c3ccncc3)o2)cc1`: 8 µM.

In general, IC50 refers to the midpoint of a concentration-inhibition curve. Low values mean greater potency in that assay, high ones weaker potency in that assay.
